The experiment relates to untransfected CHO parental cells. The experiment in a line: CHO parental cells assay (intracellular cAMP, RIA). The class given is cell-based, Chinese Hamster. The settings on record: tested on untransfected CHO parental cells. How it is done:
Briefly CHO parental cells were plated in 96 well packard view plates 5×10^4 cells/well in serum containing media. […] The wells were washed with serum free assay medium (containing 0.1 mM MIX) and pre-incubated for 15 minutes in this medium. Compound 1 and forskolin (positive control) were added and the cells were incubated for an additional one hour. The cells were lysed and intracellular cAMP was measured using the Amersham direct one step cAMP-RIA kit according to the manufacturers directions.

In patent publication US7456201B2, “Pharmaceutically active compounds and methods of use” (Laboratoires Serono SA, priority 2000, dated 2008) one finds hFSHR specificity data, which are given here for one molecule.

In the case of `CC(C)(C)c1ccc(-n2nc(-c3cccnc3)cc2CCCCC(=O)NC(Cc2ccc(O)cc2)C(N)=O)cc1` (stereo not shown) [Compound 1-B, N-(5-[1-(4-tert-butylphenyl)-3-pyridin-3-yl-1H-pyrazol-5-yl]pentanoyl)tyrosinamide], the hFSHR specificity entry was “hFSHR specific”.
